Experiments:
[1] = cited from earlier work
PD patients with LIDS = settings: patients with idiopathic PD and LIDS, one oral dosage per day, 4 mg/day escalated to 24 mg/day
From the text: Patients with idiopathic PD and LIDS are enrolled in a clinical study. […] The patient population in this study is typical of those patients with LIDS. Upon randomization of patients for receiving study agent or placebo, there are no statistically significant differences in baseline parameters between the 2 groups.
The study consists of 3 phases: a treatment period, a drug taper period, and a follow-up period. Subjects are randomly assigned to receive either a nicotine salt or placebo (pbo). Treatment is with one oral dosage per day containing a nicotine salt or placebo. […]
Safety is assessed by incidences of adverse experiences (AE), clinical laboratory tests, serum cotinine, ECG and vital signs. Impulsive symptoms are assessed using the Jay Modified Minnesota Impulsive Disorders Interview (JayMidi). Withdrawal symptoms are evaluated using the Minnesota Nicotine Withdrawal Scale (MNWS-R).
Efficacy is assessed using the UPDRS (total of Parts II+III+IV), sum of Q32+Q33, Unified Dyskiensia Rating Scale (UDysRS) total scores and subscores, Lang-Fahn Dyskinesia Acitivties of Daily Living Scale (LF-ADL), CGI-C and PGI-C scales, and responder analyses (subjects with >25% improvement from baseline) on UDysRS total score and LF-ADL, and % subjects with any improvement on PGI-C and CGI-C. […]

Row | SMILES | solubility in water [1] | adverse experiences (AE) (PD patients with LIDS) | improvement on patient- and physician-rated outcome measures (UPDRS, UDysRS, LF-ADL, CGI-C, PGI-C) compared to pbo (PD patients with LIDS; majority of outcome measures)
1 | N[C@@H](Cc1ccc(O)c(O)c1)C(=O)O [Levodopa, L-3,4-dihydroxyphenylalanine (S)-2-amino-3-(3,4-dihydroxyphenyl)propanoic acid] | slightly soluble | – | –
2 | CN1CCC[C@H]1c1cccnc1 [nicotine, 3-[(2S)-1-methylpyrrolidin-2-yl]pyridine] | – | no unexpected AEs occur | trend towards statistically significant improvement

— patent US20180015080A1, “COMPOSITIONS AND METHODS FOR TREATMENT IN PARKINSON'S DISEASE PATIENTS” (priority 2013, published 2018)
